pEC50: −log10 of the molar value.
Target: T1, human β3 adrenergic receptor (Homo sapiens, UniProt P13945)
T1 construct: stably transfected with the cloned β-adrenergic receptor (β1, β2 or β3); expressed in transfected cells; host or cells: Chinese hamster ovary (CHO) cells, stably transfected
Test: Functional assay: cAMP production (LANCE TR-FRET) in CHO cells stably transfected with cloned β3 adrenergic receptor
Type: cell-based
Conditions: Table 3; cAMP production, CHO cells expressing human β3 AR; read-out: Human β3 functional
Protocol: Functional Assay: cAMP production in response to ligand is measured according to Barton, et al. (1991, Agonist-induced desensitization of D2 dopamine receptors in human Y-79 retinoblastoma cells. Mol. Pharmacal. v3229:650-658) modified as follows, cAMP production is measured using a homogenous time-resolved fluorescence resonance energy transfer immunoassay (LANCE™, Perkin Elmer) according to the manufacture's instructions. Chinese hamster ovary (CHO) cells, stably transfected with the cloned β-adrenergic receptor (β1, β2 or β3) are harvested after 3 days of subculturing. Harvesting of cells is done with Enzyme-free Dissociation Media (Specialty Media). Cells are then counted and resuspended in assay buffer (Hank's Balanced salt solution supplemented with 5 mM HEPES, […]) containing a phosphodiesterase inhibitor (IBMX, 0.6 mM). The reaction is initiated by mixing 6,000 cells in 6 μL with 6 μL Alexa Fluor labeled cAMP antibody (LANCE™ kit) which is then added to an assay well containing 12 μL of compound (diluted in assay buffer to 2× final concentration). The reaction proceeds for 30 min at room temperature and is terminated by the addition of 24 ul detection buffer (LANCE™ kit). The assay plate is then incubated for 1 h at room temperature and time-resolved fluorescence measured on a Perkin Elmer Envision reader or equivalent. The unknown cAMP level is determined by comparing fluorescence levels to a cAMP standard curve.
The non-selective, full agonist β-adrenergic ligand isoproterenol is used at all three receptors to determine maximal stimulation. The human β3 adrenergic receptor (AR) selective ligand (S)-N-[4-[2-[[2-hydroxy-3-(4-hydroxyphenoxy)propyl]amino]ethyl]-phenyl]-4-iodobenzenesulfonamide is used as a control in all assays. Isoproterenol is titrated at a final concentration in the assay of 10^-10 M to 10-5 and the selective ligand (S)-N-[4-[2-[[2-hydroxy-3-(4-hydroxyphenoxy)propyl]amino]ethyl]phenyl]-4-iodobenzenesulfonamide is titrated at the β3 receptor at concentration of 10^-10 M to 10^-5 M. Unknown ligands are titrated at all 3 β-adrenergic receptor subtypes at a final concentration in the assay of 10^-10 M to 10^-5 M to determine the EC50. The EC50 is defined as the concentration of compound that gives 50% activation of its own maximum. Data are analyzed using Microsoft Excel and Graphpad Prism or an internally developed data analysis software package.

T1 sequence (P13945 whole entry): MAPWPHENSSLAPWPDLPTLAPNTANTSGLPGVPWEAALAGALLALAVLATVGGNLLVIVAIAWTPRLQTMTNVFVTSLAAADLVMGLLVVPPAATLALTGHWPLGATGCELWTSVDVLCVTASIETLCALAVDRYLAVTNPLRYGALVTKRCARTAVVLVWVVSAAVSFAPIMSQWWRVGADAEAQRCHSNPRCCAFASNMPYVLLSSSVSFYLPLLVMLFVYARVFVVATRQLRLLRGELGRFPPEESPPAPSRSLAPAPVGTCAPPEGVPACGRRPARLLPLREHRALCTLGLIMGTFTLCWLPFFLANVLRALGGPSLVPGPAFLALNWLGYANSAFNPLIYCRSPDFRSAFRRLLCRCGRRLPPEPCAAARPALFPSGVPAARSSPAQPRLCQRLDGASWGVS

Row | Compound | pEC50
1 | Cc1nc2c(s1)CCCC2C(=O)Nc1ccc(CC2CC[C@H]([C@H](O)c3cccnc3)N2)cc1 (single isomer, unassigned) [Example 131] | 8.00 to 9.00
2 | Cc1nc2c(s1)CCCC2C(=O)Nc1ccc(CC2CC[C@H]([C@H](O)c3cccnc3)N2)cc1 (single isomer, unassigned) [Example 132] | 6.00 to 7.00
3 | Cc1nc2c(s1)CCCC2C(=O)Nc1ccc(CC2CC[C@H]([C@H](O)c3cccnc3)N2)cc1 (single isomer, unassigned) [Example 134] | 7.00 to 7.96
4 | O=C(Cc1nc2c(s1)CCC2C(=O)Nc1ccc(CC2CC[C@H]([C@H](O)c3cccnc3)N2)cc1)NCc1ccccc1 (single isomer, unassigned) [Example 135] | 7.00 to 7.96
5 | O=C(Cc1nc2c(s1)CCC2C(=O)Nc1ccc(CC2CC[C@H]([C@H](O)c3cccnc3)N2)cc1)NCc1ccccc1 (single isomer, unassigned) [Example 136] | 8.00 to 9.00
6 | O=C(Nc1ccc(CC2CC[C@H]([C@H](O)c3cccnc3)N2)cc1)C1CCCc2ccnn21 (single isomer, unassigned) [Example 140] | 7.00 to 7.96
7 | CC(C(=O)Nc1ccc(CC2CC[C@H]([C@H](O)c3cccnc3)N2)cc1)n1nccn1 (single isomer, unassigned) [Example 143] | 8.00 to 9.00
8 | CC(F)(C(=O)Nc1ccc(CC2CC[C@H]([C@H](O)c3cccnc3)N2)cc1)c1ccccn1 (single isomer, unassigned) [Example 147] | 6.00 to 7.00
9 | CC(C(=O)Nc1ccc(CC2CC[C@H]([C@H](O)c3cccnc3)N2)cc1)n1ccnn1 (single isomer, unassigned) [Example 148] | 8.00 to 9.00
10 | CC(C(=O)Nc1ccc(CC2CC[C@H]([C@H](O)c3cccnc3)N2)cc1)n1ccnn1 (single isomer, unassigned) [Example 149] | 8.00 to 9.00
11 | Cc1nnc(C(C)C(=O)Nc2ccc(CC3CC[C@H]([C@H](O)c4cccnc4)N3)cc2)[nH]1 (single isomer, unassigned) [Example 153] | 7.00 to 7.96
12 | Cc1[nH]nc2c1CCC2C(=O)Nc1ccc(CC2CC[C@H]([C@H](O)c3cccnc3)N2)cc1 (single isomer, unassigned) [Example 155] | 7.00 to 7.96
13 | O=C(Nc1ccc(CC2CC[C@H]([C@H](O)c3cccnc3)N2)cc1)C1CCc2sc(F)nc21 (single isomer, unassigned) [Example 157] | 8.00 to 9.00
14 | O=C(Nc1ccc(CC2CC[C@H]([C@H](O)c3cccnc3)N2)cc1)C1CCc2sc(Br)nc21 (single isomer, unassigned) [Example 158] | > 9.00
15 | O=C(Nc1ccc(CC2CC[C@H]([C@H](O)c3cccnc3)N2)cc1)C1CCc2sc(Br)nc21 (single isomer, unassigned) [Example 159] | 7.00 to 7.96
16 | O=C(Nc1ccc(CC2CC[C@H]([C@H](O)c3cccnc3)N2)cc1)C1CCc2nccc(=O)n21 (single isomer, unassigned) [Example 161] | 8.00 to 9.00
17 | CC(C(=O)Nc1ccc(CC2CC[C@H]([C@H](O)c3cccnc3)N2)cc1)n1ncccc1=O (single isomer, unassigned) [Example 162] | 8.00 to 9.00
18 | CC(C(=O)Nc1ccc(CC2CC[C@H]([C@H](O)c3cccnc3)N2)cc1)n1cnccc1=O (single isomer, unassigned) [Example 164] | 8.00 to 9.00
19 | CC(C(=O)Nc1ccc(CC2CC[C@H]([C@H](O)c3cccnc3)N2)cc1)n1cnccc1=O (single isomer, unassigned) [Example 165] | 8.00 to 9.00
20 | Cc1noc2c1CCC2C(=O)Nc1ccc(CC2CC[C@H]([C@H](O)c3cccnc3)N2)cc1 (single isomer, unassigned) [Example 169] | 7.00 to 7.96
21 | Cc1nnc2n1CCC2C(=O)Nc1ccc(CC2CC[C@H]([C@H](O)c3cccnc3)N2)cc1 (single isomer, unassigned) [Example 170] | 7.00 to 7.96
22 | Cc1cc(C(C)C(=O)Nc2ccc(CC3CC[C@H]([C@H](O)c4cccnc4)N3)cc2)[nH]n1 (single isomer, unassigned) [Example 176] | 7.00 to 7.96

The remaining lines, values ahead:

Row | pEC50 | Compound
23 | 7.00 to 7.96 | Cc1nc2c(s1)CCCC2C(=O)Nc1ccc(CC2CC[C@H]([C@H](O)c3cccnc3)N2)cc1 (single isomer, unassigned) [Example 133]
24 | 8.00 to 9.00 | O=C(O)c1nc2c(s1)CCC2C(=O)Nc1ccc(CC2CC[C@H]([C@H](O)c3cccnc3)N2)cc1 (single isomer, unassigned) [Example 137]
25 | 7.00 to 7.96 | O=C(O)c1nc2c(s1)CCC2C(=O)Nc1ccc(CC2CC[C@H]([C@H](O)c3cccnc3)N2)cc1 (single isomer, unassigned) [Example 138]
26 | 6.00 to 7.00 | O=C(Nc1ccc(CC2CC[C@H]([C@H](O)c3cccnc3)N2)cc1)C1CCCc2ccnn21 (single isomer, unassigned) [Example 139]
27 | 8.00 to 9.00 | CC(C(=O)Nc1ccc(CC2CC[C@H]([C@H](O)c3cccnc3)N2)cc1)n1cncn1 (single isomer, unassigned) [Example 141]
28 | 8.00 to 9.00 | CC(C(=O)Nc1ccc(CC2CC[C@H]([C@H](O)c3cccnc3)N2)cc1)n1nccn1 (single isomer, unassigned) [Example 142]
29 | 8.00 to 9.00 | CC(C(=O)Nc1ccc(CC2CC[C@H]([C@H](O)c3cccnc3)N2)cc1)c1cnccn1 (single isomer, unassigned) [Example 144]
30 | 8.00 to 9.00 | CC(C(=O)Nc1ccc(CC2CC[C@H]([C@H](O)c3cccnc3)N2)cc1)c1cnccn1 (single isomer, unassigned) [Example 145]
31 | 7.00 to 7.96 | CC(F)(C(=O)Nc1ccc(CC2CC[C@H]([C@H](O)c3cccnc3)N2)cc1)c1ccccn1 (single isomer, unassigned) [Example 146]
32 | 8.00 to 9.00 | COC(=O)c1cn(C(C)C(=O)Nc2ccc(CC3CC[C@H]([C@H](O)c4cccnc4)N3)cc2)nn1 (single isomer, unassigned) [Example 150]
33 | 7.00 to 7.96 | COC(=O)c1cn(C(C)C(=O)Nc2ccc(CC3CC[C@H]([C@H](O)c4cccnc4)N3)cc2)nn1 (single isomer, unassigned) [Example 151]
34 | 8.00 to 9.00 | Cc1nnc(C(C)C(=O)Nc2ccc(CC3CC[C@H]([C@H](O)c4cccnc4)N3)cc2)[nH]1 (single isomer, unassigned) [Example 152]
35 | 8.00 to 9.00 | Cc1[nH]nc2c1CCC2C(=O)Nc1ccc(CC2CC[C@H]([C@H](O)c3cccnc3)N2)cc1 (single isomer, unassigned) [Example 154]
36 | 8.00 to 9.00 | O=C(Nc1ccc(CC2CC[C@H]([C@H](O)c3cccnc3)N2)cc1)C1CCc2sc(F)nc21 (single isomer, unassigned) [Example 156]
37 | 8.00 to 9.00 | O=C(Nc1ccc(CC2CC[C@H]([C@H](O)c3cccnc3)N2)cc1)C1CCc2nccc(=O)n21 (single isomer, unassigned) [Example 160]
38 | 8.00 to 9.00 | CC(C(=O)Nc1ccc(C[C@@H]2CC[C@H]([C@H](O)c3cccnc3)N2)cc1)n1ncccc1=O (single isomer, unassigned) [Example 163]
39 | 8.00 to 9.00 | CC(C(=O)Nc1ccc(CC2CC[C@H]([C@H](O)c3cccnc3)N2)cc1)n1cccnc1=O (single isomer, unassigned) [Example 166]
40 | 8.00 to 9.00 | CC(C(=O)Nc1ccc(C[C@@H]2CC[C@H]([C@H](O)c3cccnc3)N2)cc1)n1cccnc1=O (single isomer, unassigned) [Example 167]
41 | 8.00 to 9.00 | Cc1noc2c1CCC2C(=O)Nc1ccc(CC2CC[C@H]([C@H](O)c3cccnc3)N2)cc1 (single isomer, unassigned) [Example 168]
42 | 7.00 to 7.96 | Cc1nnc2n1CCC2C(=O)Nc1ccc(CC2CC[C@H]([C@H](O)c3cccnc3)N2)cc1 (single isomer, unassigned) [Example 171]
43 | 8.00 to 9.00 | CC(C(=O)Nc1ccc(CC2CC[C@H]([C@H](O)c3cccnc3)N2)cc1)c1nccs1 (single isomer, unassigned) [Example 174]
44 | 8.00 to 9.00 | CC(C(=O)Nc1ccc(CC2CC[C@H]([C@H](O)c3cccnc3)N2)cc1)c1nccs1 (single isomer, unassigned) [Example 175]
45 | 6.00 to 7.00 | Cc1cc(C(C)C(=O)Nc2ccc(CC3CC[C@H]([C@H](O)c4cccnc4)N3)cc2)[nH]n1 (single isomer, unassigned) [Example 177]
46 | 8.00 to 9.00 | CC(C(=O)Nc1ccc(CC2CC[C@H]([C@H](O)c3cccnc3)N2)cc1)c1ccn[nH]1 (single isomer, unassigned) [Example 178]
47 | 7.00 to 7.96 | CC(C(=O)Nc1ccc(CC2CC[C@H]([C@H](O)c3cccnc3)N2)cc1)c1ccn[nH]1 (single isomer, unassigned) [Example 179]

Source: patent US8501786B2, “Hydroxymethyl pyrrolidines as beta 3 adrenergic receptor agonists” (Merck Sharp & Dohme Corp., priority 2009, dated 2013)
